One series has as its target T1, human EAAT3 (Homo sapiens, UniProt P43005).
T1 construct: expressed in transfected cells; host or cells: HEK-293
T1 sequence (P43005 1-524): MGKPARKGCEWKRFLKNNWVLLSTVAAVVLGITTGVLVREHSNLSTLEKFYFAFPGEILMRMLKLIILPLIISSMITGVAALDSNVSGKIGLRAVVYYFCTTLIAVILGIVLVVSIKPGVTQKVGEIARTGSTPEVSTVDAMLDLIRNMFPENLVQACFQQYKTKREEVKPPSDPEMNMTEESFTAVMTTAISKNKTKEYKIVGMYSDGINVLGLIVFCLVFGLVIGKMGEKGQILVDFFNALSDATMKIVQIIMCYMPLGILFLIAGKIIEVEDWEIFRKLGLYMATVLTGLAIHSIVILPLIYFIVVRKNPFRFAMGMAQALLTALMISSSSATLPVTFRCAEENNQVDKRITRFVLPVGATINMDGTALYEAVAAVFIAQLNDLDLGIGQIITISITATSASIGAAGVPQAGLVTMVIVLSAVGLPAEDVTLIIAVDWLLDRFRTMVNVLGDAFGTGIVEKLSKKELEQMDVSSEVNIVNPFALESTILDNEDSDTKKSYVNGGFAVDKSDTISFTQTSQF
Kind of series: FLIPR Membrane Potential (FMP) assay. The class given is cell-based. The note with it: HEK-293 cells stably expressing human EAAT3; L-glutamate as agonist at EC80; antagonist applied 15 min before; Kb by Cheng-Prusoff from IC50. Here is the method:
The FLIPR Membrane Potential (FMP) assay
HEK-293 cells stably expressing human EAAT3 were seeded at 55 000 cells/well in growth medium (DMEM glutamate free (Invitrogen 11960-044), 1% Pen Strep (10 ml/l GIBCO BRL N^o 15140-023), 10% FCS non dialysed heat inactivated, 5 mg/l puromycin) in poly-D-lysine treated 96-well black microtiter plates with clear-bottom. After 24 h, the growth medium was removed and 100 μl/well of Krebs buffer (140 mM NaCl, 4.7 mM KCl, 2.5 mM CaCl2), 1.2 mM MgCl2, 11 mM HEPES, 10 mM D-glucose, pH=7.4) added. The cells were then loaded by adding 100 μl/well FMP assay dye (FLIPR Membrane Potential assay reagent, Molecular Devices). The 96-well plates were then incubated at 37° C. for 1 h. The depolarization of the cells will cause more dye to enter in the cells, where it will bind to intracellular proteins and lipids and cause an increase in the fluorescence signal. Antagonist potency at human EAAT3 was determined by using L-glutamate as agonist at a concentration which gives 80% of the maximum response. The antagonists were applied 15 min before the application of the agonist L-glutamate. The assays were performed at room temperature and measurements done by using a Fluorometric Imaging Plate Reader (FLIPR, Molecular Devices) and filter #2. Responses were measured as peak increase in fluorescence minus basal (i.e. fluorescence without addition of L-glutamate). Kb was determined using the Cheng-Prusoff equation Kb=IC50/[1+(A/EC50)], where IC50 is the concentration of the antagonist producing 50% inhibition, A is the concentration of the agonist against which the IC50 is being determined (at EC80) and EC50 is the concentration of the agonist producing 50% […].

One may read the melting point as the temperature, or range, at which the solid turns liquid. As usually defined, the Kb is the affinity of an antagonist, worked out from how it opposes an agonist. Compound `CC(C)(C#N)NC(=O)c1cc(-c2ccc(F)cc2)nc(-c2ccnn2C(C)(C)C)c1` [Example 14, 2-(2-tert-Butylpyrazol-3-yl)-N-(2-cyano-propan-2-yl)-6-(4-fluoro-phenyl)-pyridine-4-carboxamide] came in with a melting point of 213 °C. Also, on human EAAT3, the Kb was determined as 71 nM.
`CCn1nccc1-c1cc(C(=O)NC(C)(C)C)cc(-c2ccc(F)cc2)n1` [Example 11, N-tert-Butyl-2-(2-ethylpyrazol-3-yl)-6-(4-fluorophenyl)-pyridine-4-carboxamide] displayed a melting point of 170 °C. For the same compound, on human EAAT3, the Kb stood at 360 nM.
The like results for `CC(C)(CO)NC(=O)c1cc(-c2ccc(Cl)cc2)nc(-c2ccnn2C(C)(C)C)c1` [Example 55, 2-(2-tert-Butyl-pyrazol-3-yl)-6-(4-chlorophenyl)-N-(1-hydroxy-2-methyl-propan-2-yl)-pyridine-4-carboxamide] were, in that order, 177 °C and 73 nM.
Compound `CC(C)n1nccc1-c1cc(C(=O)NC(C)(C)C)cc(-c2ccc(F)cc2)n1` [Example 8, N-tert-Butyl-2-(4-fluorophenyl)-6-(2-propan-2-yl-pyrazol-3-yl)-pyridine-4-carboxamide] had a melting point of 200 °C. This compound displayed an antagonist equilibrium constant (Kb) on human EAAT3 of 260 nM.
`CC(C)(C)NC(=O)c1cc(-c2ccccc2)nc(-c2ccnn2C(C)(C)C)c1` [Example 27, N-tert-Butyl-2-(2-tert-butyl-pyrazol-3-yl)-6-phenyl-pyridine-4-carboxamide] yielded a melting point of 209 °C. Further, the Kb at human EAAT3 worked out at 94 nM.
As for `CC(C)(C)n1nccc1-c1cc(C(=O)NC(C)(C)C(F)(F)F)cc(-c2ccc(F)cc2)n1` [Example 13, 2-(2-tert-Butyl-pyrazol-3-yl)-6-(4-fluorophenyl)-N-(1,1,1-trifluoro-2-methyl-propan-2-yl)-pyridine-4-carboxamide], the melting point was found to be 178 °C. This compound also had a Kb on human EAAT3 of 88 nM.
The like results for `CC(C)n1nccc1-c1cc(C(=O)NC(C)(C)C#N)cc(-c2ccc(Cl)cc2)n1` [Example 52, 2-(4-Chlorophenyl)-N-(2-cyanopropan-2-yl)-6-(2-propan-2-yl-pyrazol-3-yl)-pyridine-4-carboxamide] were, in that order, 206 °C and 440 nM.
